Experimental data: ChEMBL document CHEMBL5506035, “Discovery of Glutamate Carboxypeptidase III Ligands to Compete the Uptake of [177Lu]Lu-PSMA-617 in Healthy Organs” (J Med Chem, 2024)
Activity calls are given as the source filed them. The rule behind the calls is not given here.

What was measured:
[1] = molecular target: T1, Glutamate carboxypeptidase 2 (Homo sapiens, UniProt Q04609); assay: Binding affinity to human recombinant PSMA assessed as dissociation constant by fluorescence polarization assay
Target sequence in this assay (Q04609 whole entry): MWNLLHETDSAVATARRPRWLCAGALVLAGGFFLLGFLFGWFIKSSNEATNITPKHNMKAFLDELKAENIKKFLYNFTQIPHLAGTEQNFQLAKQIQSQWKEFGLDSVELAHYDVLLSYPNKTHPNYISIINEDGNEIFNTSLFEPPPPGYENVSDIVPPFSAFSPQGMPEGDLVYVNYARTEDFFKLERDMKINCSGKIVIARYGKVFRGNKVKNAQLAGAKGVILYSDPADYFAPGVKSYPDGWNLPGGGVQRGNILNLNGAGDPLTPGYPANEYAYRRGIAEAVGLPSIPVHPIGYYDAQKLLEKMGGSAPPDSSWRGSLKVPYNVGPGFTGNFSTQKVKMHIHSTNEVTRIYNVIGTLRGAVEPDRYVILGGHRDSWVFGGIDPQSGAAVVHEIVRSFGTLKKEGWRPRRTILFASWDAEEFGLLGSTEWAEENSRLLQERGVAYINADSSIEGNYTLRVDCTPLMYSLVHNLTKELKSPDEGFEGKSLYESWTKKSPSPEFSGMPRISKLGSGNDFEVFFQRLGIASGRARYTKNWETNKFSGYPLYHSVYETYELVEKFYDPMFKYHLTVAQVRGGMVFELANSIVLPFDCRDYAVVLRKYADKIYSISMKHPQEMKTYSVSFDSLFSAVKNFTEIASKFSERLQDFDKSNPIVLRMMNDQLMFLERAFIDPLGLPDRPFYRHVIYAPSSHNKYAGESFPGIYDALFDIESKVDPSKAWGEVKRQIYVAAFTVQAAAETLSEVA

[2] = molecular target: T2, N-acetylated-alpha-linked acidic dipeptidase 2 (Homo sapiens, UniProt Q9Y3Q0); assay: Binding affinity to human recombinant GCPIII assessed as dissociation constant by fluorescence polarization assay
Target sequence in this assay (Q9Y3Q0 whole entry): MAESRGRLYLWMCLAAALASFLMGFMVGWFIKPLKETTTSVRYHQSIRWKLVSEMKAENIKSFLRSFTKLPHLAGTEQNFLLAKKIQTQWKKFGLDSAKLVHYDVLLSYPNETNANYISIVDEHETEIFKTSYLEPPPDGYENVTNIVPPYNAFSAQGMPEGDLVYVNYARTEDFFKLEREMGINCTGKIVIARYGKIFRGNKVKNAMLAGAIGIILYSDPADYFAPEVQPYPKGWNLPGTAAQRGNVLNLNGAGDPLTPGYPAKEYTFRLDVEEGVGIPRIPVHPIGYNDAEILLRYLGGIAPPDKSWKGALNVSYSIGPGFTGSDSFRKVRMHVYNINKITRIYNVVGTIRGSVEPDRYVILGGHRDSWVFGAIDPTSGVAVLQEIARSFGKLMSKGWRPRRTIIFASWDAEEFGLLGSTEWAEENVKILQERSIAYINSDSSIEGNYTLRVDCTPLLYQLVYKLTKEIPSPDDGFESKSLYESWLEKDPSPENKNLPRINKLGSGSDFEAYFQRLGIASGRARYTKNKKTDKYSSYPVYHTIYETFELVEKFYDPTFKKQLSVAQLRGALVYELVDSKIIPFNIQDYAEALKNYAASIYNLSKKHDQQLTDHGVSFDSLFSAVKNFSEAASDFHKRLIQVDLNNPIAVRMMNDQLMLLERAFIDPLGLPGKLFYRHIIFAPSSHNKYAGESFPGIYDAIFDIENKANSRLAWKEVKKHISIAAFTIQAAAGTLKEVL

[3] = molecular target: T1, Glutamate carboxypeptidase 2; assay: Displacement of [177Lu]LU-PSMA-617 from human PSMA at 10 to 100 uM incubated for 15 mins by manual size-exclusion chromatography analysis; conditions: dose 10-100 µM
Target sequence in this assay (Q04609 whole entry, looked up): as the sequence (Q04609 whole entry) above

[4] = molecular target: T2, N-acetylated-alpha-linked acidic dipeptidase 2; assay: Displacement of [177Lu]LU-PSMA-617 from human recombinant GCPIII assessed as dissociation constant by fluorescence polarization assay
Target sequence in this assay (Q9Y3Q0 whole entry): as the sequence (Q9Y3Q0 whole entry) above

[5] = molecular target: T1, Glutamate carboxypeptidase 2; assay: Displacement of [177Lu]LU-PSMA-617 from human recombinant PSMA assessed as dissociation constant by fluorescence polarization assay
Target sequence in this assay (Q04609 whole entry): as the sequence (Q04609 whole entry) above

[6] = molecular target: T1, Glutamate carboxypeptidase 2; assay: Displacement of [177Lu]LU-PSMA-617 from PSMA in human salivary gland assessed as residual activity at 10 uM incubated for 1 hr by autoradiography analysis relative to control; assay type: tissue-based
Target sequence in this assay (Q04609 whole entry, looked up): as the sequence (Q04609 whole entry) above

Homo sapiens = organism: Homo sapiens; assay: Ratio of Kd for binding affinity to human recombinant GCPIII assessed as dissociation constant by fluorescence polarization assay to Kd for binding affinity to human recombinant PSMA assessed as dissociation constant by fluorescence polarization assay
[7] = molecular target: T1, Glutamate carboxypeptidase 2; assay: Displacement of [177Lu]LU-PSMA-617 from PSMA in human HT-1080 cells by autoradiography analysis; assay type: cell-based; conditions: dose 0.6-50 µM
Target sequence in this assay (Q04609 whole entry, looked up): as the sequence (Q04609 whole entry) above

[8] = molecular target: T2, N-acetylated-alpha-linked acidic dipeptidase 2; assay: Displacement of [177Lu]LU-PSMA-617 from human […] at 10 to 100 uM incubated for 15 mins by manual size-exclusion chromatography analysis; conditions: dose 10-100 µM
Target sequence in this assay (Q9Y3Q0 whole entry, looked up): as the sequence (Q9Y3Q0 whole entry) above

SMILES | Kd [1] [nM] | Kd [2] [nM] | Kd [4] [nM] | Kd [5] [nM] | other results
O=C1OC2(c3ccc(O)cc3Oc3cc(O)ccc32)c2ccc(NC(=S)NCCCC[C@H](NC(=O)[C@@H]3C[C@@H](Cc4c[nH]nn4)CN3C(=O)c3cnoc3C3CC3)C(=O)O)cc21 | > 1000 | 106 |  |  | 
O=C(O)CC[C@H](NC(=O)N[C@@H](CCCCNC(=O)[C@H](Cc1ccc2ccccc2c1)NC(=O)[C@H]1CC[C@H](CNC(=O)CN2CCN(CC(=O)O)CCN(CC(=O)O)CCN(CC(=O)O)CC2)CC1)C(=O)O)C(=O)O |  |  |  |  | Activity [3]: inactive
O=C1OC2(c3ccc(O)cc3Oc3cc(O)ccc32)c2ccc(NC(=S)NCCCC[C@H](NC(=O)[C@@H]3C[C@@H](n4cc(-c5c[nH]nn5)nn4)CN3C(=O)c3cnoc3C3CC3)C(=O)O)cc21 |  | > 300 |  |  | 
O=C(NCCCC[C@H](NC(=O)[C@@H]1C[C@@H](NC(=O)c2c[nH]nn2)CN1C(=O)c1cnoc1C1CC1)C(=O)O)c1c[nH]nn1 |  |  | 12 | > 20000 | 
CCCCCCNC(=S)Nc1ccc2c(c1)C(=O)OC21c2ccc(O)cc2Oc2cc(O)ccc21 |  |  |  |  | Activity [6]: 92%
Cn1nncc1C(=O)N[C@@H]1C[C@@H](C(=O)N[C@@H](CCCCNC(=S)Nc2ccc3c(c2)C(=O)OC32c3ccc(O)cc3Oc3cc(O)ccc32)C(=O)O)N(C(=O)c2cnoc2C2CC2)C1 |  | > 500 |  |  | 
NC[C@H](NC(=O)[C@@H]1C[C@@H](NC(=O)c2c[nH]nn2)CN1C(=O)c1c[nH]nn1)C(=O)O |  |  | 10000 | > 20000 | 
NCCCC[C@H](NC(=O)[C@@H]1C[C@@H](NC(=O)c2c[nH]nn2)CN1C(=O)c1cnoc1C1CC1)C(=O)O |  |  | 13000 | > 20000 | 
COc1ccc(C2=[N+]3C(=Cc4c(C)c(CCC(=O)NCCCC[C@H](NC(=O)[C@@H]5C[C@@H](NC(=O)c6c[nH]nn6)CN5C(=O)c5cnoc5C5CC5)C(=O)O)c(C)n4[B-]3(F)F)C=C2)cc1 | > 1000 | 15 |  |  | 
O=C(N[C@@H]1C[C@@H](C(=O)N[C@@H](CCCCNC(=S)Nc2ccc3c(c2)C(=O)OC32c3ccc(O)cc3Oc3cc(O)ccc32)C(=O)O)N(C(=O)c2cnoc2-c2ccccc2)C1)c1c[nH]nn1 | 23 | 6.4 |  |  | 
O=C(NC[C@H](NC(=O)[C@@H]1C[C@@H](NC(=O)c2c[nH]nn2)CN1C(=O)c1c[nH]nn1)C(=O)O)c1c[nH]nn1 |  |  | 1.5 | 231 | 
CC(=O)NCCCC[C@H](NC(=O)[C@@H]1C[C@@H](NC(=O)c2c[nH]nn2)CN1C(=O)c1c[nH]nn1)C(=O)O |  |  | 6400 | 15000 | 
O=C(NCCCC[C@H](NC(=O)[C@@H]1C[C@@H](NC(=O)c2c[nH]nn2)CN1C(=O)c1c[nH]nn1)C(=O)O)c1c[nH]nn1 |  |  | 12 | > 20000 | 
N=c1ccc2c(-c3ccc(C(=O)NCCCC[C@H](NC(=O)[C@@H]4C[C@@H](NC(=O)c5c[nH]nn5)CN4C(=O)c4cnoc4C4CC4)C(=O)O)cc3C(=O)O)c3ccc(N)c(S(=O)(=O)O)c3oc-2c1S(=O)(=O)O | > 1000 | 4.5 |  |  | 
O=C(NCCCC[C@H](NC(=O)[C@@H]1C[C@@H](NC(=O)c2c[nH]nn2)CN1C(=O)c1c[nH]nn1)C(=O)Nc1c[nH]nn1)c1c[nH]nn1 |  |  | 338 | > 20000 | 
O=C(CCOCCOCCOCCOCCOCCOCCOCCOCCOCCOCCC(=O)NCCCC[C@H](NC(=O)[C@@H]1C[C@@H](NC(=O)c2cnn[nH]2)CN1C(=O)c1cnoc1C1CC1)C(=O)O)NCCCC[C@H](NC(=O)[C@@H]1C[C@@H](NC(=O)c2cnn[nH]2)CN1C(=O)c1cnoc1C1CC1)C(=O)O |  |  | 505 | > 20000 | 
O=C(Cn1ccnn1)N[C@@H]1C[C@@H](C(=O)N[C@@H](CCCCNC(=S)Nc2ccc3c(c2)C(=O)OC32c3ccc(O)cc3Oc3cc(O)ccc32)C(=O)O)N(C(=O)c2cnoc2C2CC2)C1 |  | > 500 |  |  | 
CC(=O)NC[C@H](NC(=O)[C@@H]1C[C@@H](NC(=O)c2c[nH]nn2)CN1C(=O)c1cnoc1C1CC1)C(=O)O |  |  | 2000 | > 20000 | 
O=C(N[C@@H]1C[C@@H](C(=O)NCCOCCOCCNC(=S)Nc2ccc3c(c2)C(=O)OC32c3ccc(O)cc3Oc3cc(O)ccc32)N(C(=O)c2cnoc2C2CC2)C1)c1c[nH]nn1 | 310 | 24 |  |  | 
Cc1[nH]nnc1C(=O)N[C@@H]1C[C@@H](C(=O)N[C@@H](CCCCNC(=S)Nc2ccc3c(c2)C(=O)OC32c3ccc(O)cc3Oc3cc(O)ccc32)C(=O)O)N(C(=O)c2cnoc2C2CC2)C1 |  | > 500 |  |  | 
O=C(N[C@@H]1C[C@@H](C(=O)NCCCCCCNC(=S)Nc2ccc3c(c2)C(=O)OC32c3ccc(O)cc3Oc3cc(O)ccc32)N(C(=O)c2cnoc2C2CC2)C1)c1c[nH]nn1 | 48 | 7 |  |  | 
O=C(N[C@@H]1C[C@@H](C(=O)N[C@@H](CCCCNC(=S)Nc2ccc3c(c2)C(=O)OC32c3ccc(O)cc3Oc3cc(O)ccc32)C(=O)O)N(C(=O)c2cnoc2C2CC2)C1)c1c[nH]cn1 |  | > 300 |  |  | 
O=C(N[C@@H]1C[C@@H](C(=O)N[C@@H](CNC(=S)Nc2ccc3c(c2)C(=O)OC32c3ccc(O)cc3Oc3cc(O)ccc32)C(=O)O)N(C(=O)c2cnoc2C2CC2)C1)c1c[nH]nn1 | > 1000 | 6.3 |  |  | Activity [6]: 44%
CC(=O)NCCCC[C@H](NC(=O)[C@@H]1C[C@@H](NC(=O)c2c[nH]nn2)CN1C(=O)c1cnoc1C1CC1)C(=O)O |  |  | 41 | > 20000 | 
CC(=O)N1C[C@H](NC(=O)c2c[nH]nn2)C[C@H]1C(=O)N[C@@H](CCCCNC(=S)Nc1ccc2c(c1)C(=O)OC21c2ccc(O)cc2Oc2cc(O)ccc21)C(=O)O | > 1000 | 169 |  |  | 
NCCCC[C@H](NC(=O)[C@@H]1C[C@@H](NC(=O)c2c[nH]nn2)CN1C(=O)c1c[nH]nn1)C(=O)O |  |  | 17000 | > 20000 | 
Cn1cc(C(=O)N[C@@H]2C[C@@H](C(=O)N[C@@H](CCCCNC(=S)Nc3ccc4c(c3)C(=O)OC43c4ccc(O)cc4Oc4cc(O)ccc43)C(=O)O)N(C(=O)c3cnoc3C3CC3)C2)nn1 |  | > 500 |  |  | 

More lines, main results first:

Kd [1] [nM] | Kd [2] [nM] | Kd [4] [nM] | Kd [5] [nM] | SMILES | other results
 | > 2600 |  |  | CC(=O)N[C@@H]1C[C@@H](C(=O)N[C@@H](CCCCNC(=S)Nc2ccc3c(c2)C(=O)OC32c3ccc(O)cc3Oc3cc(O)ccc32)C(=O)O)N(C(=O)c2cnoc2C2CC2)C1 | 
 |  | 53 | 13000 | O=C(NCCCCNC(=O)NCCCC[C@H](NC(=O)[C@@H]1C[C@@H](NC(=O)c2c[nH]nn2)CN1C(=O)c1cnoc1C1CC1)C(=O)O)NCCCC[C@H](NC(=O)[C@@H]1C[C@@H](NC(=O)c2c[nH]nn2)CN1C(=O)c1cnoc1C1CC1)C(=O)O | 
 | > 300 |  |  | O=C(N[C@@H]1C[C@@H](C(=O)N[C@@H](CCCCNC(=S)Nc2ccc3c(c2)C(=O)OC32c3ccc(O)cc3Oc3cc(O)ccc32)C(=O)O)N(C(=O)c2cnoc2C2CC2)C1)c1nc[nH]n1 | 
> 1000 | 23 |  |  | O=C(N[C@@H]1C[C@@H](C(=O)N[C@H](CCCCNC(=S)Nc2ccc3c(c2)C(=O)OC32c3ccc(O)cc3Oc3cc(O)ccc32)C(=O)O)N(C(=O)c2cnoc2C2CC2)C1)c1c[nH]nn1 | 
> 1000 | 4.8 |  |  | O=C(N[C@@H]1C[C@@H](C(=O)N[C@@H](CCCCNC(=S)Nc2ccc3c(c2)C(=O)OC32c3ccc(O)cc3Oc3cc(O)ccc32)C(=O)O)N(C(=O)c2c[nH]nn2)C1)c1c[nH]nn1 | 
 | 87 |  |  | O=C(N[C@@H](CCCCNC(=S)Nc1ccc2c(c1)C(=O)OC21c2ccc(O)cc2Oc2cc(O)ccc21)C(=O)O)c1c[nH]nn1 | Ratio (Homo sapiens): 20
178 | 4.3 |  |  | CC(C)c1oncc1C(=O)N1C[C@H](NC(=O)c2c[nH]nn2)C[C@H]1C(=O)N[C@@H](CCCCNC(=S)Nc1ccc2c(c1)C(=O)OC21c2ccc(O)cc2Oc2cc(O)ccc21)C(=O)O | 
> 1000 | 30 |  |  | CC(C)c1nocc1C(=O)N1C[C@H](NC(=O)c2c[nH]nn2)C[C@H]1C(=O)N[C@@H](CCCCNC(=S)Nc1ccc2c(c1)C(=O)OC21c2ccc(O)cc2Oc2cc(O)ccc21)C(=O)O | 
 |  | 3200 | > 20000 | CC(=O)NCCCC[C@H](NC(=O)[C@@H]1C[C@@H](NC(=O)c2c[nH]nn2)CN1C(=O)c1cnoc1C1CC1)C(=O)Nc1c[nH]nn1 | 
 |  | 67 | > 20000 | CC(=O)NC[C@H](NC(=O)[C@@H]1C[C@@H](NC(=O)c2c[nH]nn2)CN1C(=O)c1c[nH]nn1)C(=O)O | 
 |  | 8 | 1300 | O=C(NC[C@H](NC(=O)[C@@H]1C[C@@H](NC(=O)c2c[nH]nn2)CN1C(=O)c1cnoc1C1CC1)C(=O)O)c1c[nH]nn1 | 
 |  | 300 | > 20000 | O=C(N[C@@H]1C[C@@H](C(=O)O)N(C(=O)c2cnoc2C2CC2)C1)c1c[nH]nn1 | 
> 1000 | 1.7 |  |  | O=C(N[C@@H]1C[C@@H](C(=O)N[C@@H](CNC(=S)Nc2ccc3c(c2)C(=O)OC32c3ccc(O)cc3Oc3cc(O)ccc32)C(=O)O)N(C(=O)c2c[nH]nn2)C1)c1c[nH]nn1 | Activity [7]: Dose-Dependent Effect; Activity [6]: 14%; Activity [8]: Active
332 | 12 |  |  | COC(=O)[C@H](CCCCNC(=S)Nc1ccc2c(c1)C(=O)OC21c2ccc(O)cc2Oc2cc(O)ccc21)NC(=O)[C@@H]1C[C@@H](NC(=O)c2c[nH]nn2)CN1C(=O)c1cnoc1C1CC1 | 
